From patent publication US9963474B2, “Mitochondria-targeted dicarbonyl sequestering compounds” (MEDICAL RESEARCH COUNCIL, priority 2013, dated 2018)

What was measured:
[1] = system: C57Bl6/J mice with STZ-induced Type I diabetes; assay: STZ-induced Type I diabetes mouse model, diabetic complications in the heart; format: in vivo
Protocol: To determine the effects of MitoG-amide on diabetic complications in the heart a well-established mouse model of type I diabetes was used, based on destruction of the beta-cells in the pancreas by administration of the beta-cell toxin streptozotocin (STZ; obtainable from Selleck Chemicals, Munich, Germany). Mice that were 6-7 week old C57Bl6/J mice (>20 g) were administered STZ (50 mg/kg by intraperitoneal injection) on 5 consecutive days. The death of the beta-cells and the induction of the high blood glucose associated with Type I diabetes was confirmed by weekly blood glucose tests on mice tail vein blood sample. A blood glucose level >17 mmol/l was considered diabetic. For experiments, mice were divided into three groups: (a) control; (b) STZ-induced Type I diabetes; and (c) STZ-induced Type I diabetic animals treated with MitoG-amide (10 mg/kg body weight once per day via gavage). This was repeated for 12 weeks (FIG. 13). At the end of the protocol, mice underwent cardiac magnetic resonance imaging (MRI) measurement (FIG. 14) followed by left ventricular catheter-based Pressure/Volume (P/V) measurement (FIG. 15). The MRI and P/V loop measurements were performed on the same day and the MRI volume measures were used as correction for the P/V loop.
For the cardiac magnetic resonance imaging (MRI) measurement a standard cardiac MRI protocol with a 4.7T Bruker BioSpec system was performed 24 h after surgery. Anaesthesia was induced with 3% and maintained with 1.25% isoflurane in oxygen. Temperature was monitored with a rectal probe and maintained constant via a heated water blanket, respiration was monitored using a pillow connected to a piezoelectric transducer. Electrocardiogram (ECG) signals were monitored with neonatal graphite (3M) electrodes, placed over the front left and rear right paws.
A 12 cm diameter birdcage was used to transmit the signal and a 4 channel cardiac array coil was used for signal reception. The imaging protocol consisted of scout scans followed by ECG-gated fast imaging with steady state […] (FISP) slices (repetition time/echo time TR/TE 6/2.4 ms 13-20 frames, 3.5 cm field of view (FOV), 256 matrix, 1 mm slice thickness, bandwidth 64.1 kHz, flip angle (FA) 20°, 2 sampling average [number of excitations, NEX]), in the long-axis and in the short-axis to cover the whole heart. In post processing, volumes during different phases of the ECG were delineated and integrated over whole heart using Simpson's rule. Global functional parameters were obtained including ejection fraction, the fraction of blood ejected into the circulation during one heartbeat.
For the Pressure/Volume (P/V) measurement, left ventricular catheterization via the right carotid artery was carried out using a 1.2 F pressure-catheter (Scisense Inc., London, Canada).
The results of the long-term treatment of the STZ-induced Type I diabetes administered with MitoGamide on body weight, blood glucose and heart rate were compared with placebo-treated STZ mice and controls (FIG. 16). The blood glucose was measured on whole blood using Johnson and Johnson's OneTouch® Ultra Blood Glucose Monitoring System. The heart rate was measured during use of the P/V loop catheter and recorded.
To assess the effect of MitoGamide on the well-known detrimental effects of long-term hyperglycaemia in Type I diabetes heart function was measured by MRI and by P/V loop measurement (FIG. 17). Mice that were 6-7 week old C57Bl6/J mice (>20 g) were administered STZ (50 mg/kg by intraperitoneal injection) on 5 consecutive days. The death of the beta-cells and the induction of the high blood glucose associated with Type I diabetes was confirmed by weekly blood glucose tests on mice tail vein blood sample. A blood glucose level >17 mmol/l was considered diabetic. […]

BAECs [2] = assay: Quantification of MQE and QE in cells by LC-MS/MS; format: cell-based, bovine; conditions: 2 μM MitoG; for amounts of MQE and QE detected after exogenous methylglyoxal or glyoxal: 10 mM AG or 2 μM FCCP
Protocol: (A) and (B) BAECs were incubated with 2 μM MitoG for 1 h and sometimes supplemented with 10 mM AG or 2 μM FCCP. Methylglyoxal (A) or glyoxal (B) were then added, and after a further 3 h incubation the levels of MQE and QE in the cell layers were determined by LC-MS/MS relative to deuterated ISs. (C, D) BAECs were incubated in media containing low (5 mM) or high (30 mM) D-glucose with 2 μM MitoG for the times indicated. Levels of MQE (C) and QE (D) in the cell layers were determined by LC-MS/MS relative to deuterated ISs. Results are means±S.E. of four independent experiments. (E) BAECs were incubated for 4 h in the presence of 2 μM MitoG in media containing either 5 mM D-glucose (low), 30 mM D-glucose (high), 5 mM D-glucose/25 mM L-glucose (L-glucose), or 30 mM D-glucose/10 mM aminoguanidinium. Levels of MQE in the cell layers were determined by LC-MS/MS relative to deuterated ISs. (F) BAECs were incubated in media containing high (30 mM) D-glucose with 2 μM MitoG for 4 h with the indicated concentrations of the glyoxalase I inhibitor bromobenzyl glutathione cyclopentyl diester. Levels of MQE and QE in the cell layers were then determined by LC-MS/MS relative to deuterated ISs. Results are means±S.E. of three determinations. Results are means±S.E. of three (A, B) or four (C-E) independent experiments. *, P<0.05 or **, P<0.01, relative to untreated (A, B) or indicated (C-E) controls; ##, P<0.01 relative to cells treated with 250 μM 1,2-dicarbonyl.
For LC-MS/MS analysis of MitoG reaction products cells were incubated in T25 flasks (Nunc) with 2 μM MitoG at 37° C. Cell monolayers were washed (1 ml PBS), scraped into 1.5 ml PBS and pelleted by centrifugation (16,000 g for 2 min). The pellet was re-suspended in 250 μl 100% acetonitrile/0.1% spiked with deuterated internal standards (ISs) ([…] each of d15-MQE and d15-QE), vortexed and centrifuged (2×16,000 g for 15 min). Samples were dried under vacuum (Savant SpeedVac), re-suspended in 100 μl 20% acetonitrile/0.1% formic acid, vortexed, centrifuged (16,000 g for 10 min), transferred to silanised autosampler vials [Chromacol #1.5HRRV(S)], flushed and sealed under argon and then stored at −80° C. until LC-MS/MS analysis. Where specified, cells were subjected to acute glycaemia treatment and were incubated either in low glucose (5 mM D-glucose), high glucose (30 mM D-glucose), or in osmotic control medium (5 mM D-glucose+25 mM L-glucose) for 4 h.
LC-MS/MS analyses were carried out using a triple quadrupole mass spectrometer (Waters Xevo TQ-S) with an I-class Aquity LC system (Waters) attached. Samples were kept at 4° C. prior to injection by the autosampler of 10 μl into a 15 μl flow-through needle and RP-HPLC at 30° C. using a Luna 5 Phenyl-Hexyl column (1×50 mm, 5 μm; Phenomenex) with a Phenyl-Hexyl guard column (2×4 mm; Phenomenex). Buffers used were MS buffer A [0.1% (v/v) formic acid in water] and MS buffer B [95% acetonitrile/0.1% formic acid (both v/v)]. A gradient was run at […] as follows: 0-2 min—5% B; 2-3 min—5-25% B; 3-5 min—25-75% B; 5-7 min—75-100% B; 7-10 min—100% B; 10-12 min—100-5% B; 12-20 min—5% B. Eluant was diverted to waste from the mass spectrometer at 0-5 min and 16-20 min acquisition time using an in-line divert valve. […] Transitions used for quantification were as follows: MQE, 506>262; d15-MQE, 521>277; QE, 492>262 and d15-QE, 507>277. […]

C2C12 cells = assay: Protection against dicarbonyl-induced cell death, C2C12, MTS assay; format: cell-based, mouse; conditions: pre-treated 1 h, overnight; for protection against methylglyoxal-induced cell death: C2C12, 1 mM methylglyoxal; for protection against glyoxal-induced cell death: C2C12, 5 mM glyoxal
Protocol: (§1) Isolated RLM respiring on glutamate/malate were incubated with MitoG, methoxyphenylenediamine (MP) or butylTPP for 2 min, followed by 0.5 mM methylglyoxal or 5 mM glyoxal for 5 min. ADP was then added and the rate of oxygen consumption monitored at 37° C. (see FIGS. 12A & 12B). C2C12 cells were pre-treated with MitoG, methoxyphenylenediamine (MP) or butylTPP for 1 h before exposure to 1 mM methylglyoxal or 5 mM glyoxal (see FIGS. 12C & 12D). Following an overnight incubation, cell survival was determined using the MTS assay. Similar experiments were conducted in BAECs pre-treated with MitoG, MP or butylTPP. For all experiments, concentrations of methylglyoxal and glyoxal used were chosen based on results from studies conducted prior to the protection assays. In these prior studies, RLM or cells were exposed to a range of dicarbonyl concentrations, and the phosphorylating rates of respiration or cell survival were evaluated. The results of these earlier experiments are shown in insets, and dicarbonyl concentrations that had caused significant respiratory depression or cell death were chosen for use in the protection assays. Data for all groups were normalized against untreated controls. For RLM, the rate of respiration by untreated controls was taken to be 100%; for cells, cell survival of untreated controls was taken to be 100%. Results are expressed as mean±S.E. of three independent experiments. MitoG was protective against methylglyoxal-induced respiratory depression and both methylglyoxal- and glyoxal-induced cell death in C2C12 cells and BAECs. […] In FIG. 12 the symbols *, ** respectively indicate that P<0.05 or P<0.01 relative to dicarbonyl-only groups; and the symbols +, ++ respectively indicate that P<0.05 or P<0.01 relative to untreated controls.

[3] = system: RLM respiring on glutamate/malate; assay: Protection against dicarbonyl-induced respiratory depression in isolated RLM; design: species or system rat; conditions: 37° C.; for protection against methylglyoxal-induced respiratory depression: 0.5 mM methylglyoxal; for protection against glyoxal-induced respiratory depression: 5 mM glyoxal
Protocol: as §1

BAECs [4] = assay: Protection against dicarbonyl-induced cell death, BAECs, MTS assay; format: cell-based, bovine; conditions: pre-treated 1 h, overnight
Protocol: as §1

[5] = 10 mg/kg once per day via gavage, 12 weeks
[6] = MRI, 10 mg/kg once per day via gavage
[7] = P/V loop, 10 mg/kg once per day via gavage

| SMILES | amounts of MQE and QE detected after exogenous methylglyoxal or glyoxal (BAECs [2]) | protection against methylglyoxal-induced cell death (C2C12 cells) | protection against glyoxal-induced cell death (C2C12 cells) | protection against methylglyoxal-induced respiratory depression [3] | protection against glyoxal-induced respiratory depression [3] | protection against glyoxal-induced cell death (BAECs [4]) | protection against methylglyoxal-induced cell death (BAECs [4]) | other results |
| --- | --- | --- | --- | --- | --- | --- | --- | --- |
| Nc1ccc(C(=O)NCCC[P+](c2ccccc2)(c2ccccc2)c2ccccc2)cc1N [MitoGamide, [3-(3,4′-Diaminobenzoylamino)-prop-1-yl]triphenylphosphonium m esylate] |  |  |  |  |  |  |  | effect on STZ-induced decrease in body weight [1, 5]: neither of which were affected; effect on STZ-induced increase in blood glucose [1, 5]: neither of which were affected; heart rate [1, 5]: neither STZ- or MitoGamide-treatment affected heart rate; increase in diastolic stiffness in diabetic mice ([1]; MRI-corrected P/V loops, 10 mg/kg once per day via gavage): prevented; end diastolic volume impaired by STZ [1, 6]: not ameliorated; systolic ejection fraction [1, 6]: neither STZ nor MitoGamide had any effect; increase in end diastolic pressure in diabetic mice [1, 7]: prevented; left ventricular diastolic time constant (Tau Weiss) impaired by STZ [1, 7]: not ameliorated; oxidative damage in the heart (4-hydroxynonenal staining) ([1]; heart histology, antibody against 4HNE): decreased oxidative damage |
| N=C(N)NN [AG, aminoguanidine] | reduced |  |  |  |  |  |  | formation of MQE under high glucose (BAECs [2]; 30 mM D-glucose/10 mM aminoguanidinium, 4 h): decreased |
| CCCC[P+](c1ccccc1)(c1ccccc1)c1ccccc1 [ButylTPP] |  | not significantly protective | not significantly protective | not significantly protective | not significantly protective | not significantly protective | not significantly protective |  |
| CCCCCCOc1ccc(N)c(N)c1 [HP, 4-Hexyloxybenzene-1,2-diamine] |  | not significantly protective | not significantly protective | not significantly protective | not significantly protective | not significantly protective | not significantly protective |  |
| NC(CCC(=O)NC(CSCc1ccc(Br)cc1)C(=O)NCC(=O)OC1CCCC1)C(=O)OC1CCCC1 (centres unmarked) [bromobenzyl glutathione cyclopentyl diester] |  |  |  |  |  |  |  | amount of MQE and QE under high glucose (BAECs [2]; high glucose, 4 h, glyoxalase I inhibitor): increased |
| N#CC(C#N)=NNc1ccc(OC(F)(F)F)cc1 [FCCP, carbonylcyanide p-trifluoromethoxyphenylhydrazone] | reduced |  |  |  |  |  |  | formation of MQE/QE under high glucose (BAECs [2]; high glucose, with uncoupler): blocked |
